From patent US10870647B2, “Imidazopyridine derivative, method for preparing same, and pharmaceutical composition containing same as active ingredient for preventing or treating cancer” (DAEGU-GYEONGBUK MEDICAL INNOVATION FOUNDATION, priority 2016, dated 2020)

Legend:
Experiment in all cases: Kinase selectivity, scanMAX Kinase assay panel (DiscoverX), % control at 1 uM
Type in all cases: binding
[1] = biological target: T1, scanMAX Kinase assay panel (Homo sapiens, UniProt P42681); conditions: TXK; 1 uM; read-out: Percent Control (%)
T1 construct: purchased DiscoverX
T1 sequence (P42681 1-527): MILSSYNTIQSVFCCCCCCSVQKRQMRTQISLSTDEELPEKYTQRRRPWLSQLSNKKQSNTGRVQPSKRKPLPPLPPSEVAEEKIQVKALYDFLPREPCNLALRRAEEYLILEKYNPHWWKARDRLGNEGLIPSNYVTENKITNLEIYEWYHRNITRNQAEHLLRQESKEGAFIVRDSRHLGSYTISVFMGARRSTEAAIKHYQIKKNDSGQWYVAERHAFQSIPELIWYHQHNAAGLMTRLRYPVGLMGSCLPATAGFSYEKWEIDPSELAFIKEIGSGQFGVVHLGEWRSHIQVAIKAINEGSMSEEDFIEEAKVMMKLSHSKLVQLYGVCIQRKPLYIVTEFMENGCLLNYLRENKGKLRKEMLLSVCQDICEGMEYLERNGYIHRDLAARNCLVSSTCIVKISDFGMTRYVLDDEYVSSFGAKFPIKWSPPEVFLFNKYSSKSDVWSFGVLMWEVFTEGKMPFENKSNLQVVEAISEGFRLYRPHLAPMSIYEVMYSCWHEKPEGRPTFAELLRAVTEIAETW
Outline: (§1)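 Activity was called for kinases showing % control under 35, calculated from compound signal relative to positive and negative controls. Each compound screened at 1 uM against the DiscoverX scanMAX panel.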

[2] = biological target: T2, scanMAX Kinase assay panel (Homo sapiens, UniProt Q00537); conditions: PCTK2; 1 uM; read-out: Percent Control (%)
T2 construct: purchased DiscoverX
T2 sequence (Q00537 whole entry): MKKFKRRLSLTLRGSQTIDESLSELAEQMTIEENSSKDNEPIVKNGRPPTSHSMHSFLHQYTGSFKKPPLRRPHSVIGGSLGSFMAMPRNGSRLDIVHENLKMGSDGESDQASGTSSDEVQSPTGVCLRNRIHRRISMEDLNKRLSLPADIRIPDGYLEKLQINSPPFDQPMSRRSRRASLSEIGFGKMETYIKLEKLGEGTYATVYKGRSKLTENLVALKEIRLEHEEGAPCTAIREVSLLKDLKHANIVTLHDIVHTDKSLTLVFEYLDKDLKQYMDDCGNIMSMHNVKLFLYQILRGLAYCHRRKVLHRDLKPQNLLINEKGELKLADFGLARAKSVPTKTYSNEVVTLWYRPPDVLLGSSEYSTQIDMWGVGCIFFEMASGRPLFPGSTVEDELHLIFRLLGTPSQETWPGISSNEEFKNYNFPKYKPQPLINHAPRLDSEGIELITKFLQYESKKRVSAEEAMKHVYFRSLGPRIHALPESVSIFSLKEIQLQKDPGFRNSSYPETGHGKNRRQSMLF
Outline: as §1

[3] = biological target: T3, scanMAX Kinase assay panel (Homo sapiens, UniProt P54762); conditions: EPHB1; 1 uM; read-out: Percent Control (%)
T3 construct: purchased DiscoverX
T3 sequence (P54762 18-984): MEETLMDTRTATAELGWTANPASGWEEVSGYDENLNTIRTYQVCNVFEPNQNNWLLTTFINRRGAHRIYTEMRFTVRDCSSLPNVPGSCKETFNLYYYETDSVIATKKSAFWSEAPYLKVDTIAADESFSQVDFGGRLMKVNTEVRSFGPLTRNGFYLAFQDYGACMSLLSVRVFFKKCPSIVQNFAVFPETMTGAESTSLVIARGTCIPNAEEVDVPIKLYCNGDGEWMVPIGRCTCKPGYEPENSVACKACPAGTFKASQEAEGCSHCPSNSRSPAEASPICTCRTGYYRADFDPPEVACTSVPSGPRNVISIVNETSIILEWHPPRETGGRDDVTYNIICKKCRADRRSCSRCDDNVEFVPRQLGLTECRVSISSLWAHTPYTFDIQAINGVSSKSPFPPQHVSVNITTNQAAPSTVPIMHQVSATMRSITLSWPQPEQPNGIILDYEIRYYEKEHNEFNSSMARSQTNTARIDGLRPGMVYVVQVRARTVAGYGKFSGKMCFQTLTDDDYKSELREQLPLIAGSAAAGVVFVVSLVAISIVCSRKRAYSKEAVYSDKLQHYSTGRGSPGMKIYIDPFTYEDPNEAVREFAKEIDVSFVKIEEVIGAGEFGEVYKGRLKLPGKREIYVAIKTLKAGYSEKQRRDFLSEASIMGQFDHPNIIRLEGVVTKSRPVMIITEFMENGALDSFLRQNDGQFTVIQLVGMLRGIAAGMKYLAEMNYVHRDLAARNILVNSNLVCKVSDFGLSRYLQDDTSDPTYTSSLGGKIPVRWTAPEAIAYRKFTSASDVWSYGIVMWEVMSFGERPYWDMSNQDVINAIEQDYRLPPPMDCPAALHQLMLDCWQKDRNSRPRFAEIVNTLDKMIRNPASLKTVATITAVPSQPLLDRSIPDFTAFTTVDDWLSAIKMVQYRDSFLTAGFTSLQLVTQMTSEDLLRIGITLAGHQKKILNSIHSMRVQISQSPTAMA
Outline: as §1

[4] = biological target: T4, scanMAX Kinase assay panel (Homo sapiens, UniProt P33981); conditions: TTK; 1 uM; read-out: Percent Control (%)
T4 construct: purchased DiscoverX
T4 sequence (P33981 1-857): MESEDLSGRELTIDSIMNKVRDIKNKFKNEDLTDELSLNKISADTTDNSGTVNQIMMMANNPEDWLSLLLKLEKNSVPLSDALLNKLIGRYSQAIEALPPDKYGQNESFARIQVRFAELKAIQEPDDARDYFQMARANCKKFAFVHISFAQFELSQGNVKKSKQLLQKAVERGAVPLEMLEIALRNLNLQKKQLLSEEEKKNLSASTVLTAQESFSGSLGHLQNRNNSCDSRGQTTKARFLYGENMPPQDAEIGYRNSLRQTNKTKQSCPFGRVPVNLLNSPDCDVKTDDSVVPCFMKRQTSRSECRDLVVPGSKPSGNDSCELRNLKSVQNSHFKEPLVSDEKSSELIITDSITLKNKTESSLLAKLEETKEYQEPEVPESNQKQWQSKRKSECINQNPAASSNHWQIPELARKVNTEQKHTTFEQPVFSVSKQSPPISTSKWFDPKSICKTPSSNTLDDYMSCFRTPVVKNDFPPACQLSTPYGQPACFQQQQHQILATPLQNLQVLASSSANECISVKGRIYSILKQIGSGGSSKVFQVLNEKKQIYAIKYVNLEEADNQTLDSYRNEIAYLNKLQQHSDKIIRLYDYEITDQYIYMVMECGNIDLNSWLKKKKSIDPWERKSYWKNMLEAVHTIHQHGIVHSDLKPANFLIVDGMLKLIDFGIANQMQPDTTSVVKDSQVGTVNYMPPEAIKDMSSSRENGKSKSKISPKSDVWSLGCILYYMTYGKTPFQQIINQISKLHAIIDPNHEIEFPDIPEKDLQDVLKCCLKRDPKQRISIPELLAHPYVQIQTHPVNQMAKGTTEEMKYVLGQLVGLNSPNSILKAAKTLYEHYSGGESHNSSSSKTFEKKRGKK
Outline: as §1

[5] = biological target: T5, scanMAX Kinase assay panel (Homo sapiens, UniProt Q15208); conditions: NDR1; 1 uM; read-out: Percent Control (%)
T5 construct: purchased DiscoverX
T5 sequence (Q15208 whole entry): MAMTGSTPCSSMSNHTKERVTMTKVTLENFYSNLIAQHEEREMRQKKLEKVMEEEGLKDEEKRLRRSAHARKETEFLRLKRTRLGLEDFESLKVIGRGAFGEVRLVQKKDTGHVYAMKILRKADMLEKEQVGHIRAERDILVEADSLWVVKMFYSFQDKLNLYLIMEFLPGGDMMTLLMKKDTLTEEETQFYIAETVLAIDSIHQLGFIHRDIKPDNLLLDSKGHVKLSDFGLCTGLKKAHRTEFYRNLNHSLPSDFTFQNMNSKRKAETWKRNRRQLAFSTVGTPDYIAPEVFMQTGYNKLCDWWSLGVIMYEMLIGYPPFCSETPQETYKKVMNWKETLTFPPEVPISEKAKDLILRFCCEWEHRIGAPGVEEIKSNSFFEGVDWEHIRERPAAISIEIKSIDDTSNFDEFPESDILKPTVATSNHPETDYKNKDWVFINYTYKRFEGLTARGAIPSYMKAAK
Outline: as §1

[6] = biological target: T6, scanMAX Kinase assay panel (Homo sapiens, UniProt O95747); conditions: OSR1; 1 uM; read-out: Percent Control (%)
T6 construct: purchased DiscoverX
T6 sequence (O95747 whole entry): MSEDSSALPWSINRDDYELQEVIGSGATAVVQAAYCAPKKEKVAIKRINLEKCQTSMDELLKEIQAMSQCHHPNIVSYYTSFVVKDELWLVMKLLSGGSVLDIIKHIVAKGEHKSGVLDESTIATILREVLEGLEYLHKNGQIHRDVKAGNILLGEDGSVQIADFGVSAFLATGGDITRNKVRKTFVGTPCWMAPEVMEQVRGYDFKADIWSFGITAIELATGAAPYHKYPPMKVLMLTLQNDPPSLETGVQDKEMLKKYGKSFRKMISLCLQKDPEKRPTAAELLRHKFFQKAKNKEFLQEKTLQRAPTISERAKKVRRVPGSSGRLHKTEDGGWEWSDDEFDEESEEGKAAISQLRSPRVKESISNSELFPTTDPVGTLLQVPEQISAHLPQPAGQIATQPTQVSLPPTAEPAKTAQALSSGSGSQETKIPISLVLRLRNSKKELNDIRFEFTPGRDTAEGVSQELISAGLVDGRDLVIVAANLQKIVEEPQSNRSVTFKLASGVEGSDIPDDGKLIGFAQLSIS
Outline: as §1

Row | Compound | remaining binding at 1 µM [1] [%] | remaining binding at 1 µM [2] [%] | remaining binding at 1 µM [3] [%] | remaining binding at 1 µM [4] [%] | remaining binding at 1 µM [5] [%] | remaining binding at 1 µM [6] [%]
1 | Cc1ccc(NC(=O)C2(C(=O)Nc3ccc(F)cc3)CC2)cc1C#Cc1cnc2c(Nc3cnn(C(C)C)c3)cccn12 [Example 78] | 91 | 100 | 90 | 100 | 83 | 100
2 | Cc1cn(-c2cc(NC(=O)c3ccc(C)c(C#Cc4cnc5c(Nc6cnn(C)c6)cccn45)c3)cc(C(F)(F)F)c2)cn1 [Example 12, 4-methyl-N-(3-(4-methyl-1H-imidazol-1-yl)-5-(trifluoromethyl)phenyl)-3-((8-((1-methyl-1H-pyrazol-4-yl)amino)imidazo[1,2-a]pyridin-3-yl)ethynyl)benzamide] | 3 | 98 | 15 | 70 | 98 | 100
3 | Cc1ccc(C(=O)Nc2ccc(CN3CCN(C)CC3)c(C(F)(F)F)c2)cc1C#Cc1cnc2c(Nc3cnn(C)c3)cccn12 [Example 1, 4-methyl-3-((8-((1-methyl-1H-pyrazol-4-yl)amino)imidazo[1,2-a]pyridin-3-yl)ethynyl)-N-(4-((4-methylpiperazin-1-yl)methyl)-3-(trifluoromethyl)phenyl)benzamide] | 1 | 19 | 0 | 12 | 56 | 88
